Laboratory results from paper PMC6695598, “The Development of Tetrazole Derivatives as Protein Arginine Methyltransferase I (PRMT I) Inhibitors” (International Journal of Molecular Sciences, 2019).
“Also recorded” adds a separate entry of the source.

Experiments:
PRMT6 = test system: PRMT6; parameters: method as in PMID 26598975; settings: cited from earlier work
PRMT1 [1] = target: T1, PRMT1 (Homo sapiens, UniProt Q99873); experiment: radioactive PRMT1 methylation inhibition assay ([3H]-SAM, biotinylated histone H4 peptide); format: biochemical
T1 sequence (Q99873 whole entry): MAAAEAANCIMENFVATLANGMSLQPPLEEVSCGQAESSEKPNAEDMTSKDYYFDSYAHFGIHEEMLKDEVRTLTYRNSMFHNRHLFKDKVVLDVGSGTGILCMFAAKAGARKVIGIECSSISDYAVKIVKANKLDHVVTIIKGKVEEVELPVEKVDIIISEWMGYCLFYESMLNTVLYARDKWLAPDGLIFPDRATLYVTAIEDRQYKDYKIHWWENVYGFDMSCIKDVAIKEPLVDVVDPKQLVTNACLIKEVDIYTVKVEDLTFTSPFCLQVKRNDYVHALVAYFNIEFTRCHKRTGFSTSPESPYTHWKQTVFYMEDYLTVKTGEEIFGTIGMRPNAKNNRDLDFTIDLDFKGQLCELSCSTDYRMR
Protocol: A series of 1,5-substituded tetrazole derivatives were synthesized to investigate the structure-activity relationship (SAR) of PRMT1 inhibitors (Table 1). […] The chemical modification of these compounds is mainly focused on the substituted benzene ring. The initial screening of these compounds was carried out using the radioactive PRMT1 methylation inhibition assay, which measured the amount of methyl groups that transferred from [^3H]-SAM to a biotinylated histone H4 peptide (ac- […](Biotin)). […] In the second step, the Group II compounds were designed and synthesized by extending the ethylenediamine side chain to propylenediamine.
(§1) The enzyme inhibitory activities were measured by the radioisotope assay in ShangHai Chempartner Co. Ltd. according to the standard protocol. The similar procedure was recently performed in the publication The radioactive methylation assay was performed in 1× assay buffer (modified Tris buffer) system containing enzyme (PRMT1/5), peptide and [^3H]-SAM solution and compounds on the assay plate. […] Afterwards, the reaction was stopped with addition of 5 μL cold SAM solution to per well. Then, 25 μL of volume per well was transferred to Flashplate from assay plate and incubated for 1 h minimum at room temperature. Finally, the Flashplate was washed with dH2O and 0.1% Tween-20 three times and then reading plate in Mi crobeta using program ^3H-Flashplate. The data was analyzed in GraphPad Prism 5 to obtain IC50 values.

PRMT5 = PRMT5 (Homo sapiens, UniProt O14744); experiment: radioactive methylation assay, PRMT5 selectivity; format: biochemical
Sequence of PRMT5 (O14744 whole entry, species assumed): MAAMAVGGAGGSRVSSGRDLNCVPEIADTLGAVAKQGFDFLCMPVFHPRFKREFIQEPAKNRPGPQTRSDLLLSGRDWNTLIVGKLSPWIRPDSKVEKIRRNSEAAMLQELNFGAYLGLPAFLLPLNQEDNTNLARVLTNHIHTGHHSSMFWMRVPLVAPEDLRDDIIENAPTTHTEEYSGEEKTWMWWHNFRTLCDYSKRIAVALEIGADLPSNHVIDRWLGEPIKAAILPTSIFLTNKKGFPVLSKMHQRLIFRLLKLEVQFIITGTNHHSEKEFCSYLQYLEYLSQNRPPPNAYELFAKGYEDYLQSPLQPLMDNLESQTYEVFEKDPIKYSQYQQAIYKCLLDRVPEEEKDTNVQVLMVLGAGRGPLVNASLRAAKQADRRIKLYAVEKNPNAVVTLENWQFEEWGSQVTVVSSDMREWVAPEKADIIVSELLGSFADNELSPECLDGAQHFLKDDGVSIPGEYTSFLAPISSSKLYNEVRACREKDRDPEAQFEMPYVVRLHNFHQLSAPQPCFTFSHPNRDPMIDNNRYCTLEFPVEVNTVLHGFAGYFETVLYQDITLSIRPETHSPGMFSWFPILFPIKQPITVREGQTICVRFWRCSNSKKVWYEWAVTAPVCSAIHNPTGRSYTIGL
Sequence of PRMT5 (Q9BQA1 whole entry partner, species assumed): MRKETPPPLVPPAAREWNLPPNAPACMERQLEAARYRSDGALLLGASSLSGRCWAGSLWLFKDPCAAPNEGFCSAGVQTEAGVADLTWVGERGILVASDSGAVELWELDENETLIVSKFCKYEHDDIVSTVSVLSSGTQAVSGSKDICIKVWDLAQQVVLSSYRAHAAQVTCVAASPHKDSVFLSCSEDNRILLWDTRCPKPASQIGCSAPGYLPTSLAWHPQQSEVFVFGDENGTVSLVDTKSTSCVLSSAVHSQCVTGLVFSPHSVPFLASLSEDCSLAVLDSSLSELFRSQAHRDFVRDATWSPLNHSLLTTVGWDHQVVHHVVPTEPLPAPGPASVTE
Protocol: as §1

PRMT1 [2] = target: T1, PRMT1; experiment: Mechanism of Action (MOA) study, competition with SAM and peptide on PRMT1; format: biochemical; settings: IC50 at varied SAM (0.5-60× Km) or peptide (0.5-100× Km) concentrations
Description: Both PRMT1 and PRMT6 are Type I PRMTs, and their structures share the high degree similarity. […] Based on the crystal structure, it can be predicated that MS023 should be a competitive inhibitor against the peptide. […] There are potential explanations for the current contradictory results. First, the main binding effects of the substrate were from the outside regions of arginine-binding site.
The method is consistent with the procedure described above.

[3] = WST-8/CCK8 cell viability assay; format: cell-based; settings: human, MDA-MB-231 breast cancer cells, read-out: IC50 against MDA-MB-231 (cytotoxicity)
Protocol: The MDA-MB-231 cell line used in this study was obtained from the American Type Culture Collection (ATCC, Rockville, MD, USA), and was grown in dulbecco’s modified eagle medium (DMEM, Gibco, Thermo Fisher Scientific, Waltham, MA, USA) supplemented with 10% fetal bovine serum (FBS) (Gibco). The cells were incubated at 37 °C and 5% CO2.
The cytotoxicity was determined by the CCK8 assay. Briefly, MDA-MB-231 cells (5 × 10^3 cells/well) were seeded in 96-well plates in DMEM containing 10% FBS and grew for 24 h. The exponentially growing cells were incubated with various concentrations of compounds for 48h/72h in serum free DMEM at 37 °C (5% CO2, 95% humidity). CCK8 reagent (10 μL) was added to each well and incubated for further 2 h, and then the absorbance was analyzed in a multiwell-plate reader (BioTek ELx800) at 450 nm.

MDA-MB-231 cells = experiment: Western blotting of PRMT1 and Wnt pathway markers; format: cell-based
Protocol: MDA-MB-231 cells were maintained on 6-well plates at the appropriate density. […] Total cell lysates were separated by SDS-PAGE and transferred onto nitrocellulose membranes. The blots were blocked with 5% nonfat milk for 30 min and the target proteins were probed with appropriate specific antibody overnight at 4 °C, respectively. The blots were washed with TBST for three times and then incubated with anti-rabbit secondary antibody (HRP conjugated) for 1 h. After another three washes, bands were detected in a ChemiScope3400 imaging system using ECL substrate (Millipore, Burlington, MS, USA). Primary antibodies used were as follows: anti-PRMT1 (Cell Signaling Technology no.2449, Danvers, MA, USA), anti-ADMA (Cell Signaling Technology no.13522), anti-SDMA (Cell Signaling Technology no.13222), anti-GAPDH (Cell Signaling Technology no. 5174), anti-H4R3me2a Abcam, ab9231), Wnt3a (Cell Signaling Technology no. 2721s), anti-DDAH (Abcam, ab9231, Cambridge, UK), Wnt5a/b (Cell Signaling Technology no. 2530s), β-catenin (Cell Signaling Technology no. 8480s), MMP9 (Cell Signaling Technology no.1366s). The results were obtained from multiple membranes. No significant differences were observed among loading controls. Therefore, we presented the representative loading control blot image in the figure.

[4] = MDA-MB-231, 48 h, top concentration 200 μM

IC50 (PRMT1 [1]) | inhibition at 10 µM (PRMT1 [1]; 10 μM compound, initial screening) | IC50 (PRMT5) | Structure (SMILES) | mode of inhibition with respect to SAM and peptide substrate (PRMT6) | mode of inhibition with respect to SAM and peptide substrate (PRMT1 [2]) | IC50 at 48 h ([3]; 48 h) | IC50 at 72 h ([3]; 72 h) | global level of ADMA (MDA-MB-231 cells; [4]) | global level of H4R3me2as (MDA-MB-231 cells; [4]) | global level of SDMA (MDA-MB-231 cells; [4]) | level of DDAH (MDA-MB-231 cells; [4]) | level of Wnt3a (MDA-MB-231 cells; [4]) | level of Wnt5a (MDA-MB-231 cells; [4]) | level of β-catenin (MDA-MB-231 cells; [4]) | cell damage during the western blotting experiment (MDA-MB-231 cells; MDA-MB-231, top concentration 200 μM)
 |  |  | CC(C)Oc1ccc(-c2c[nH]cc2CN(C)CCN)cc1 [MS023] | noncompetitive with either SAM or peptide substrate |  |  |  |  |  |  |  |  |  |  | 
3.5 µM | > 47% | > 100 µM | CNCCN(C)Cc1nnnn1-c1ccc(OC(C)C)cc1.Cl [9a, N,N’-Dimethyl-N’-(1-(4-isopropoxyphenyl)-1H-tetrazol-5-yl-methyl)ethylenediamine hydrochloride] |  | noncompetitive inhibitor for either the cofactor SAM or peptide substrate; also recorded: non-competitive pattern with respect to either SAM or substrate arginine; also recorded: did not compete with either SAM or peptides | > 500 µM | 541 ± 6.5 µM | significantly decreased in a concentration-dependent manner; also recorded: significantly decreased in concentration-dependent manners | decreased the global level of H4R3me2as in a concentration-dependent manner; also recorded: significantly decreased in concentration-dependent manners | not significantly affected; also recorded: not significantly changed | significantly decreased in a concentration-dependent manner; also recorded: significantly decreased in concentration-dependent manners | significantly decreased in concentration-dependent manners | did not change significantly; also recorded: not changed | significantly decreased in concentration-dependent manners | no obvious cell damage was observed
